The results in this text go back to paper PMC8015227, “Understanding the Metabolism of Proteolysis Targeting Chimeras (PROTACs): The Next Step toward Pharmaceutical Applications” (Journal of Medicinal Chemistry, 2020).

Where two headings read alike, the source gives them in different places.

Data set [1] can be described thus: Nonenzymatic stability of 1 (dBet1) in the autosampler in four solutions during LC-MS. The format is physicochemical. As to conditions: for nonenzymatic stability in autosampler: 12 h. How it is done:
dBet1 (1) (10 mM in DMSO) was diluted 1:1000 in PBS/ACN (50:50, vol/vol) to afford a final concentration of 10 μM; 100 μL was drawn and dried under a gentle nitrogen stream at 40 °C for 30 min. After that evaporation was completed, the dry residue was reconstituted with 100 μL of DMSO. Additional three solutions of dBet1 (1) (10 μM) were prepared in PBS, PBS/ACN (50:50, vol/vol), and DMSO. The four solutions were stored into the autosampler of the LC apparatus at 37 °C for 12 h. Injections (2 μL) were programmed every 3 h.

The nature of data set [2]: Metabolic stability in cryopreserved human hepatocytes. As to conditions: human. The format is in vitro ADME.
Data set [3] has as its target CYP3A4 (Homo sapiens, UniProt P08684). Description: in vitro. The note with it: pH 7.4.
The test system of data set [4] is cryopreserved human hepatocytes. The experiment in a line: Metabolic stability in cryopreserved human hepatocytes. The format is in vitro ADME.
Where [5] appears, read: cryopreserved human hepatocytes (pooled, suspension), Figures 3-5, cryopreserved human hepatocytes, read-out: half-life (t1/2).
Where [6] appears, read: cryopreserved human hepatocytes (pooled, suspension), Table S1, PROTACs, cryopreserved human hepatocytes, read-out: t1/2.
[7] abbreviates: cryopreserved human hepatocytes (pooled, suspension), supplement CSV, human hepatocytes, read-out: HLH t1/2.
The mark [8] stands for this setting: supplement CSV, in brackets, final time point 240 min.
[9] abbreviates: cryopreserved human hepatocytes (pooled, suspension), Table 2, cryopreserved human hepatocytes, read-out: t1/2.
The mark [10] stands for this setting: Table 2, biotransformations observed in cryopreserved human hepatocytes.
[11] abbreviates: cryopreserved human hepatocytes (pooled, suspension), Table 1, incubation in cryopreserved human hepatocytes, 1 μM, up to 240 min, read-out: t1/2.
The mark [12] stands for this setting: Table 1, biotransformations observed in cryopreserved human hepatocytes.
Where [13] appears, read: cryopreserved human hepatocytes (pooled, suspension), Table S2, free ligands, cryopreserved human hepatocytes, read-out: t1/2.

Chain of CYP3A4 (P08684 whole entry): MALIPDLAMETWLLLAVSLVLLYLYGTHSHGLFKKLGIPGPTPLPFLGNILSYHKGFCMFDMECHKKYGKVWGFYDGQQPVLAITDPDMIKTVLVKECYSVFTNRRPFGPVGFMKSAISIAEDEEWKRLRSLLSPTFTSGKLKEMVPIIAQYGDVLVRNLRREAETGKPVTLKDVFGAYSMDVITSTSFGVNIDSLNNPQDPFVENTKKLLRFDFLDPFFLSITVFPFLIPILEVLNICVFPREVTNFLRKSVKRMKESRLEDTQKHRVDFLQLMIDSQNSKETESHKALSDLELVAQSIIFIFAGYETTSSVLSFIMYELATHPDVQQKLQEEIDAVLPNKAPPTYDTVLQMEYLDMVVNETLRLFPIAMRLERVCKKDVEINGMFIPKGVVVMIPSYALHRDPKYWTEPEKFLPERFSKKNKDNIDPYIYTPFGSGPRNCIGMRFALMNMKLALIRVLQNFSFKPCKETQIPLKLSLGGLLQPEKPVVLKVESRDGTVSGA

Consider `Cc1sc2c(c1C)C(c1ccc(Cl)cc1)=N[C@@H](CC(=O)NCCCCNC(=O)COc1cccc3c1C(=O)N(C1CCC(=O)NC1=O)C3=O)c1nnc(C)n1-2` (stereo partly drawn) [Compound 1, dBet1], for which the “nonenzymatic stability in autosampler” value in data set [1] (PBS/ACN (1:1 v/v), 37 °C) was “Degradation was also observed”; in data set [1] (pure DMSO, 37 °C) it was “very stable over time”; in data set [1] (pure PBS pH 7.4, 37 °C), “rapidly degrades”. For the same compound, in data set [1] (PBS/ACN-DMSO protocol, autosampler 37 °C), the “substrate degradation within the first three hours” value is given as “about 10%”. Also, the half-life at 1 µM in data set [2] (setting [5]), in data set [2] (setting [6]) and in data set [2] (setting [7]) was 135 min in each case.

Take `Cc1sc2c(c1C)C(c1ccc(Cl)cc1)=N[C@@H](CC(=O)NCCOCCOCCNc1cccc3c1C(=O)N(C1CCC(=O)NC1=O)C3=O)c1nnc(C)n1-2` (stereo partly drawn) [Compound 5, 2-((S)-4-(4-Chlorophenyl)-2,3,9-trimethyl-6H-thieno[3,2-f][1,2,4]triazolo[4,3-a][1,4]diazepin-6-yl)-N-(2-(2-(2-((2-(2,6-dioxopiperidin-3-yl)-1,3-dioxoisoindolin-4-yl)amino)ethoxy)ethoxy)ethyl)acetamide]: the half-life at 1 µM in data set [3] amounted to 1.1 min; in data set [2] (setting [6]), 49.4 min; in data set [2] (setting [7]), 49.4 min.

Consider `Cc1ncsc1-c1ccc([C@H](C)NC(=O)[C@@H]2C[C@@H](O)CN2C(=O)[C@@H](NC(=O)CCCCn2cc(CCCC(=O)N3CCN(C(=O)c4cc(Cc5n[nH]c(=O)c6ccccc56)ccc4F)CC3)nn2)C(C)(C)C)cc1` [Compound 25, (2S,4R)-1-((S)-2-(5-(4-(4-(4-(2-Fluoro-5-((4-oxo-3,4-dihydrophthalazin-1-yl)methyl)benzoyl)piperazin-1-yl)-4-oxobutyl)-1H-1,2,3-triazol-1-yl)pentanamido)-3,3-dimethylbutanoyl)-4-hydroxy-N-((S)-1-(4-(4-methylthiazol-5-yl)phenyl)ethyl)pyrrolidine-2-carboxamide], for which the half-life at 1 µM in data set [2] (setting [5]), in data set [2] (setting [6]) and in data set [2] (setting [7]) was greater than 240 min each time. Besides, the substrate left result in data set [4] (cryopreserved human hepatocytes, end of incubation (240 min)) is recorded as “about 84%”. Also, the “HLH percentage of substrate left at the final time point of analysis” value (“HLH percentage of substrate left” below) in data set [4] (setting [8]) amounted to 84.7%.

Turning to `O=C(COc1cccc2c1C(=O)N(C1CCC(=O)NC1=O)C2=O)NCCCCCCCCNC(=O)COc1c(-c2csc(N3CCOCC3)n2)ccc(F)c1F` (stereo not drawn) [Compound 26, 2-(2,3-Difluoro-6-(2-morpholinothiazol-4-yl)phenoxy)-N-(8-(2-((2-(2,6-dioxopiperidin-3-yl)-1,3-dioxoisoindolin-4-yl)oxy)acetamido)octyl)acetamide], the half-life at 1 µM in data set [2] (setting [5]), in data set [2] (setting [9]), in data set [2] (setting [6]) and in data set [2] (setting [7]) was 8.4 min in each case. Further, the “Reaction (soft spots)” value in data set [4] (setting [10]) is listed as “a. Amide hydrolysis b. N-dealkylation c. O-dealkylation”.

Regarding `O=C(COc1cccc2c1C(=O)N(C1CCC(=O)NC1=O)C2=O)NCCOCCOCCNC(=O)COc1c(-c2csc(N3CCOCC3)n2)ccc(F)c1F` (stereo not drawn) [Compound 27, 2-(2,3-Difluoro-6-(2-morpholinothiazol-4-yl)phenoxy)-N-(2-(2-(2-(2-((2-(2,6-dioxopiperidin-3-yl)-1,3-dioxoisoindolin-4-yl)oxy)acetamido)ethoxy)ethoxy)ethyl)acetamide], the half-life at 1 µM in data set [2] (setting [9]), in data set [2] (setting [6]) and in data set [2] (setting [7]) was 39.4 min throughout. Moreover, the “Reaction (soft spots)” value in data set [4] (setting [10]) was “a. Amide hydrolysis b. O-dealkylation (x3) c. Aliphatic-hydroxylation”.

For the compound `O=C(COc1c(-c2csc(N3CCOCC3)n2)ccc(F)c1F)NCCCCCCNc1cccc2c1C(=O)N(C1CCC(=O)NC1=O)C2=O` (stereo not drawn) [Compound 29, 2-(2,3-Difluoro-6-(2-morpholinothiazol-4-yl)phenoxy)-N-(6-((2-(2,6-dioxopiperidin-3-yl)-1,3-dioxoisoindolin-4-yl)amino)hexyl)acetamide], the half-life at 1 µM in data set [3] came out at 7.4 min; in data set [2] (setting [6]), 53.5 min; in data set [2] (setting [7]), 53.5 min.

For the compound `O=C(COc1c(-c2csc(N3CCOCC3)n2)ccc(F)c1F)NCCCCCCCCNc1cccc2c1C(=O)N(C1CCC(=O)NC1=O)C2=O` (stereo not drawn) [Compound 30, 2-(2,3-Difluoro-6-(2-morpholinothiazol-4-yl)phenoxy)-N-(8-((2-(2,6-dioxopiperidin-3-yl)-1,3-dioxoisoindolin-4-yl)amino)octyl)acetamide], the half-life at 1 µM in data set [2] (setting [9]), in data set [2] (setting [6]) and in data set [2] (setting [7]) was 47.6 min each time. Besides, the “Reaction (soft spots)” value in data set [4] (setting [10]) was “a. Amide hydrolysis b. N-dealkylation c. O-dealkylation d. Aliphatic-hydroxylation”.

With `Cc1ncsc1-c1ccc([C@H](C)NC(=O)[C@@H]2C[C@@H](O)CN2C(=O)[C@@H](NC(=O)CCCCCCNC(=O)COc2c(-c3csc(N4CCOCC4)n3)ccc(F)c2F)C(C)(C)C)cc1` [Compound 35], the half-life at 1 µM in data set [3] stood at 1.7 min; in data set [2] (setting [5]) it was 25 min; in data set [2] (setting [6]), 25 min; in data set [2] (setting [7]), 25 min.

On to `Cc1ncsc1-c1ccc([C@H](C)NC(=O)[C@@H]2C[C@@H](O)CN2C(=O)[C@@H](NC(=O)COCCOCCNC(=O)COc2c(-c3csc(N4CCOCC4)n3)ccc(F)c2F)C(C)(C)C)cc1` [Compound 37], for which the half-life at 1 µM in data set [2] (setting [11]), in data set [2] (setting [6]) and in data set [2] (setting [7]) was 37.6 min throughout. Further, in data set [4] (setting [12]), the “Reaction (soft spots)” value is listed as “a. O-dealkylation (x5) b. Amide Hydrolysis (x2) c. Glucuronidation d. Dehydrogenation”.

On to `Cc1ncsc1-c1ccc([C@H](CC(=O)NCCCCCCNC(=O)COc2c(-c3csc(N4CCOCC4)n3)ccc(F)c2F)NC(=O)[C@@H]2C[C@@H](O)CN2C(=O)[C@@H](NC(=O)C2(F)CC2)C(C)(C)C)cc1` [Compound 40], for which the half-life at 1 µM stood at 22.6 min in data set [3], 66.7 min in data set [2] (setting [5]), 66.7 min in data set [2] (setting [6]) and 66.7 min in data set [2] (setting [7]).

In the case of `Nc1cccc2c1C(=O)N(C1CCC(=O)NC1=O)C2=O` (stereo not drawn) [Compound 41, pomalidomide, reference compound], the half-life at 1 µM in data set [2] (setting [11]), in data set [2] (setting [13]) and in data set [2] (setting [7]) was 140 min each time. For the same compound, the “Reaction (soft spots)” value in data set [4] (setting [12]) is reported as “a. Amide Hydrolysis (x4)”.

For the compound `Cc1ncsc1-c1ccc([C@H](C)NC(=O)[C@@H]2C[C@@H](O)CN2C(=O)[C@@H](N)C(C)(C)C)cc1` [Compound 42, reference compound], the half-life at 1 µM in data set [2] (setting [11]), in data set [2] (setting [13]) and in data set [2] (setting [7]) was 92 min in each case. The “Reaction (soft spots)” value in data set [4] (setting [12]) is “a. N-dealkylation b. Aromatic hydroxylation c. Aliphatic-hydroxylation d. Aliphatic-carbonylation”.

For `Cc1sc2c(c1C)C(c1ccc(Cl)cc1)=N[C@@H](CC(=O)O)c1nnc(C)n1-2` [Compound 43, (+)-JQ1, reference compound], the half-life at 1 µM is greater than 240 min in data set [2] (hepatocytes, HLH t1/2 (min)) and greater than 240 min in data set [2] (hepatocytes, t1/2 (min)). The “Reaction (soft spots)” value in data set [4] is “a. Aliphatic-hydroxylation”. The “HLH percentage of substrate left” value in data set [4] (human, 240 min, 1 µM) was found to be 100.0%.

As to `Cl.O=C(c1cc(Cc2n[nH]c(=O)c3ccccc23)ccc1F)N1CCNCC1` [Compound 45, reference compound], the half-life at 1 µM in data set [2] (setting [13]) and in data set [2] (setting [7]) was greater than 240 min throughout. Besides, the “HLH percentage of substrate left” value in data set [4] (setting [8]) stood at 77.7%.

Take `Oc1c(-c2csc(N3CCOCC3)n2)ccc(F)c1F` [Compound 46, reference compound]: the half-life at 1 µM in data set [2] (setting [5]) was less than 20 min; in data set [2] (setting [11]), 18.3 min; in data set [2] (setting [13]), 18.3 min; in data set [2] (setting [7]) it was 18.3 min. The “Reaction (soft spots)” value in data set [4] (setting [12]) is listed as “a. O-dealkylation b.Glucuronidation c. Aliphatic hydroxylation”.
